Converted amounts (≈) assume the structure as drawn. The source made the active and inactive calls. No cut-off for these calls is given here.
Columns and labels:
FaDu = assay: Cytotoxicity against human FaDu cells; type: functional
Neisseria gonorrhoeae [1] = assay: Antibacterial activity against Neisseria gonorrhoeae by disk susceptibility test; type: functional
P388 = assay: Cytotoxicity against mouse P388 cells; type: functional; conditions: read-out: ED50 (the source's name)
[2] = Inhibition of bovine tubulin polymerization; set-up: species or system Bos taurus
Streptococcus pneumoniae [3] = assay: Antibacterial activity against Streptococcus pneumoniae by disk susceptibility test; type: functional
Bos taurus [4] = organism: Bos taurus; assay: Displacement of [3H]colchicine from bovine tubulin at inhibitor to colchicine ratio of 0.2:1; set-up: scale not given: the % may be the effect or the level left
Bos taurus [5] = organism: Bos taurus; assay: Displacement of [3H]colchicine from bovine tubulin at inhibitor to colchicine ratio of 1:1; set-up: scale not given: the % may be the effect or the level left
Staphylococcus aureus [6] = assay: Antibacterial activity against Staphylococcus aureus by disk susceptibility test; type: functional
L1210 = assay: Cytotoxicity against mouse L1210 cells; type: functional; conditions: read-out: ED50 (the source's name)
Neisseria gonorrhoeae [7] = assay: Antibacterial activity against Neisseria gonorrhoeae at 100 ug/disk by disk susceptibility test
Micrococcus luteus = assay: Antibacterial activity against Micrococcus luteus at 100 ug/disk by disk susceptibility test
Staphylococcus aureus [8] = assay: Antibacterial activity against Staphylococcus aureus at 100 ug/disk by disk susceptibility test
Streptococcus pneumoniae [9] = assay: Antibacterial activity against Streptococcus pneumoniae at 100 ug/disk by disk susceptibility test
Cryptococcus neoformans [10] = assay: Antifungal activity against Cryptococcus neoformans at 100 ug/disk by disk susceptibility test
[11] = test system: Stenotrophomonas maltophilia; assay: Antibacterial activity against Stenotrophomonas maltophilia at 100 ug/disk by disk susceptibility test
Enterococcus faecalis = assay: Antibacterial activity against Enterococcus faecalis at 100 ug/disk by disk susceptibility test
Enterobacter cloacae = assay: Antibacterial activity against Enterobacter cloacae at 100 ug/disk by disk susceptibility test
Candida albicans [12] = assay: Antifungal activity against Candida albicans at 100 ug/disk by disk susceptibility test
Escherichia coli = assay: Antibacterial activity against Escherichia coli at 100 ug/disk by disk susceptibility test
Cryptococcus neoformans [13] = assay: Antifungal activity against Cryptococcus neoformans by disk susceptibility test; type: functional
[14] = test system: Stenotrophomonas maltophilia; assay: Antibacterial activity against Stenotrophomonas maltophilia by disk susceptibility test; type: functional
Candida albicans [15] = assay: Antifungal activity against Candida albicans by disk susceptibility test; type: functional

Structure (SMILES): COc1ccc([C@H](O)[C@@H](O)c2cc(OC)c(OC)c(OC)c2)c(O)c1O
- GI50 (FaDu): > 10 µg/mL
- MIC (Neisseria gonorrhoeae [1]): 25 µg
- EC50 (P388): 2.9 µg/mL (≈ 7.92 µM)
- IC50 [2]: 10 µM

Structure (SMILES): COc1ccc(/C=C\c2cc(OC)c(OC)c(OC)c2)cc1OP(=O)([O-])[O-].[Na+].[Na+] [FOSBRETABULIN DISODIUM]
- MIC (Neisseria gonorrhoeae [1]): 50 µg
- EC50 (P388): 0.0004 µg/mL

Structure (SMILES): COc1ccc([C@H](O)[C@@H](O)c2cc(OC)c(OC)c(OC)c2)cc1O
- GI50 (FaDu): 0.6 µg/mL (≈ 1.71 µM)
- EC50 (P388): 2 µg/mL (≈ 5.71 µM)
- IC50 [2]: 14 µM
- MIC (Streptococcus pneumoniae [3]): 25 µg

Structure (SMILES): COc1cc(CCc2ccc(OC)c(OP(=O)([O-])[O-])c2OP(=O)([O-])[O-])cc(OC)c1OC.[Na+].[Na+].[Na+].[Na+]
- EC50 (P388): 0.3 µg/mL

Structure (SMILES): COc1ccc(/C=C\c2cc(OC)c(OC)c(OC)c2)c(O)c1O [COMBRETASTATIN A-1]
- GI50 (FaDu): 0.23 µg/mL (≈ 0.692 µM)
- MIC (Neisseria gonorrhoeae [1]): 25 µg
- EC50 (P388): 0.2 µg/mL (≈ 0.602 µM)
- Activity (Bos taurus [4]): 89%
- IC50 [2]: 1.1 µM
- Activity (Bos taurus [5]): 99.6%
- MIC (Staphylococcus aureus [6]): 50 µg

Structure (SMILES): COc1ccc(/C=C\c2cc(OC)c(OC)c(OC)c2)cc1O [COMBRETASTATIN A4]
- GI50 (FaDu): 0.0007 µg/mL (≈ 0.00221 µM)
- MIC (Neisseria gonorrhoeae [1]): 25 µg
- EC50 (P388): 0.0003 µg/mL (≈ 0.000948 µM)
- EC50 (L1210): 0.007 µM

Structure (SMILES): COc1ccc(/C=C/c2cc(OC)c(OC)c(OC)c2)cc1O
- Activity (Neisseria gonorrhoeae [7]): inactive
- Activity (Micrococcus luteus): inactive
- Activity (Staphylococcus aureus [8]): inactive
- Activity (Streptococcus pneumoniae [9]): inactive
- Activity (Cryptococcus neoformans [10]): inactive
- Activity [11]: inactive
- Activity (Enterococcus faecalis): inactive
- Activity (Enterobacter cloacae): inactive
- Activity (Candida albicans [12]): inactive
- Activity (Escherichia coli): inactive

Structure (SMILES): COc1ccc(/C=C/c2cc(OC)c(OC)c(OC)c2)c(O)c1O
- MIC (Cryptococcus neoformans [13]): 50 µg
- MIC [14]: 50 µg
- MIC (Neisseria gonorrhoeae [1]): 6.25 µg
- MIC (Candida albicans [15]): 50 µg
- MIC (Streptococcus pneumoniae [3]): 50 µg
- MIC (Staphylococcus aureus [6]): 50 µg

Structure (SMILES): COc1cc(/C=C\c2ccc(OC)c(OP(=O)([O-])[O-])c2OP(=O)([O-])[O-])cc(OC)c1OC.[Na+].[Na+].[Na+].[Na+]
- EC50 (P388): < 0.01 µg/mL

Structure (SMILES): COc1ccc([C@@H](O)[C@H](O)c2cc(OC)c(OC)c(OC)c2)cc1O
- GI50 (FaDu): 2.1 µg/mL (≈ 5.99 µM)
- EC50 (P388): 19 µg/mL (≈ 54.2 µM)
- IC50 [2]: > 40 µM
- MIC (Streptococcus pneumoniae [3]): 50 µg

Structure (SMILES): COc1ccc([C@@H](O)[C@H](O)c2cc(OC)c(OC)c(OC)c2)c(O)c1O
- GI50 (FaDu): 4.9 µg/mL (≈ 13.4 µM)
- EC50 (P388): 3.9 µg/mL (≈ 10.6 µM)
- Activity (Neisseria gonorrhoeae [7]): inactive
- IC50 [2]: 20 µM
- Activity (Micrococcus luteus): inactive
- Activity (Staphylococcus aureus [8]): inactive
- Activity (Streptococcus pneumoniae [9]): inactive
- Activity (Cryptococcus neoformans [10]): inactive
- Activity [11]: inactive
- Activity (Enterococcus faecalis): inactive
- Activity (Enterobacter cloacae): inactive
- Activity (Candida albicans [12]): inactive
- Activity (Escherichia coli): inactive

Structure (SMILES): COc1ccc(CCc2cc(OC)c(OC)c(OC)c2)c(O)c1O
- MIC (Neisseria gonorrhoeae [1]): 12.5 µg
- EC50 (P388): 1.7 µg/mL (≈ 5.08 µM)

Reference: ChEMBL document CHEMBL1142644, “Antineoplastic agents 440. Asymmetric synthesis and evaluation of the combretastatin A-1 SAR probes (1S,2S)- and (1R,2R)-1, 2-dihydroxy- 1-(2',3'-dihydroxy-4'-methoxyphenyl)-2-(3' ',4' ',5' '-trimethoxyphenyl)-ethane” (J Nat Prod, 2000)
